From article PMC7958898 (Journal of Medicinal Chemistry, 2021)
Substitutions are numbered along the chain they refer to.

Tests used:
hCCR2b [1] = biological target: T1, hCCR2b (Homo sapiens, UniProt P41597); test: [3H]-CCR2-RA displacement assay, U2OS-CCR2 membranes; conditions: ratio of apparent Ki to Ki of compound 7
T1 sequence (P41597 1-360 isoform P41597-2): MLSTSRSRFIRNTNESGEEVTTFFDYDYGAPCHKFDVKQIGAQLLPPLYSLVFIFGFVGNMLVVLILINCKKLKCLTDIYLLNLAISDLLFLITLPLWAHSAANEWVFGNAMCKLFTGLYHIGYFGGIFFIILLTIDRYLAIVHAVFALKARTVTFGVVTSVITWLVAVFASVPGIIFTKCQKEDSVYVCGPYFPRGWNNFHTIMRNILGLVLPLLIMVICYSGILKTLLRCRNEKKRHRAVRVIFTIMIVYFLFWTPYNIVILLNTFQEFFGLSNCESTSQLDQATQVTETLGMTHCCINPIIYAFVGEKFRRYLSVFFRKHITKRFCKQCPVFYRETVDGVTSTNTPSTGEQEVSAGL

[2] = Stability under radioligand binding assay conditions; format: physicochemical
hCCR2b [3] = biological target: T1, hCCR2b; test: NanoBiT β-arrestin1 recruitment assay in live HEK293t cells; conditions: unwashed control vs [35S]GTPγS binding assay
[4] = biological target: T2, CCR2 triple mutant C70S/C75S/C232S (Homo sapiens, UniProt P41597, C232S/C70S/C75S); test: [3H]-CCR2-RA-[R] washout assay, CHO membranes, CCR2 triple mutant; conditions: 160 nM 14, four wash cycles
T2 sequence (P41597 1-360 isoform P41597-2 C70S/C75S/C232S): T1 sequence (P41597 1-360 isoform P41597-2) with C70S, C75S, C232S

| SMILES | loss/reduction of affinity compared to compound 7 (hCCR2b [1]) [fold] | time compound remained intact in assay buffer ([2]; 25 μM, 50 mM Tris-HCl pH 7.4, 5 mM MgCl2, 0.1% CHAPS, room temperature, data not shown) | stability at higher concentration and temperature ([2]; 1 mM compound, 37 °C, over 4 h) | higher potency in β-arrestin recruitment than in [35S]GTPγS binding assay (hCCR2b [3]) [fold] | [3H]-CCR2-RA-[R] binding after washout [4] |
| --- | --- | --- | --- | --- | --- |
| O=C(NCCN=C=S)c1ccc(Oc2ccc(Cl)cc2NS(=O)(=O)c2ccc(Cl)c(C(F)(F)F)c2)cc1 [Compound 11, 4-(4-Chloro-2-((4-chloro-3-(trifluoromethyl)phenyl)sulfonamido)phenoxy)-N-(2-isothiocyanatoethyl)benzamide] | 5 |  |  |  |  |
| O=C(NCCNC(=O)c1ccc(S(=O)(=O)F)cc1)c1ccc(Oc2ccc(Cl)cc2NS(=O)(=O)c2ccc(Cl)c(C(F)(F)F)c2)cc1 [Compound 13, 4-((2-(4-(4-Chloro-2-((4-chloro-3-(trifluoromethyl)phenyl)sulfonamido)phenoxy)benzamido)ethyl)carbamoyl)benzenesulfonyl Fluoride] | 15 |  |  |  |  |
| N#CSCCNC(=O)c1ccc(Oc2ccc(Cl)cc2NS(=O)(=O)c2ccc(Cl)c(C(F)(F)F)c2)cc1 [Compound 14, 4-(4-Chloro-2-((4-chloro-3-(trifluoromethyl)phenyl)sulfonamido)phenoxy)-N-(2-thiocyanatoethyl)benzamide] |  | over 6 h | gradual degradation | 8 | recovered to levels comparable to compound 7 |
